{"source": "paper PMC7029851", "about": "“Antibacterial activity of novel dual bacterial DNA type II topoisomerase inhibitors” (PLoS ONE, 2020)", "key": {"[1]": {"system": "E. coli clinical isolates (n = 36)", "assay": "MIC, multidrug-resistant clinical isolates", "format": "cell-based, Escherichia coli", "settings": "E. coli MDR clinical isolates (n = 36); for MIC50: read-out: MIC50; for MIC90: read-out: MIC90", "description": "(§1) The bacterial reference strains used in this study were purchased from ATCC (American Type Culture Collection) via LGC Standards (Middlesex, UK). […] Clinical MDR isolates were provided by Aptuit, the IHMA Europa Sàrl repository (Epalinges, Switzerland) and the Statens Serum Institute (Copenhagen, Denmark).\n(§2) MICs were determined by the broth microdilution method (the agar dilution method was used only for N. gonorrhoeae) according to CLSI guidelines.\n(§3) The results obtained using clinical isolates are reported as MIC50 and MIC90 values."}, "[2]": {"system": "E. faecium clinical isolates (n = 12) vanA (6)/vanB (6)", "assay": "MIC, multidrug-resistant clinical isolates", "format": "cell-based", "settings": "Enterococcus faecium; for MIC: read-out: MIC range", "description": "as §1, §2, §3"}, "[3]": {"system": "E. faecalis clinical isolates (n = 12) vanA (6)/vanB (6)", "assay": "MIC, multidrug-resistant clinical isolates", "format": "cell-based", "settings": "Enterococcus faecalis; for MIC: read-out: MIC range", "description": "as §1, §2, §3"}, "[4]": {"system": "N. gonorrhoeae clinical isolates (n = 38)", "assay": "microbe, parasite or virus in culture", "format": "cell-based, Neisseria gonorrhoeae", "description": "as §1, §2, §3"}, "S. aureus ATCC 29213 [5]": {"system": "S. aureus ATCC 29213", "assay": "Post-antibiotic effect (PAE)", "format": "cell-based, Staphylococcus aureus", "description": "A drug-free control was included in each experiment. After being exposed to the drug for 1 hour, viable counts were conducted in triplicate by spotting aliquots (10 μl) of suitable dilutions onto MHA plates. The drugs were removed by diluting the bacterial cultures (1:1000) in Cation-Adjusted Mueller-Hinton Broth (CAMHB; Sigma-Aldrich). The diluted cultures were incubated in a shaking bath at 37°C. To monitor the ongoing suppression of bacterial growth over time (5 hours), aliquots from each broth culture were periodically collected, diluted and plated to perform subsequent viable counts (in triplicate)."}, "S. aureus ATCC BAA-1720": {"system": "S. aureus ATCC BAA-1720", "assay": "Time-kill assay", "format": "cell-based, Staphylococcus aureus", "settings": "1× to 4× MIC, over 24 hours", "description": "Time-kill experiments were performed according to the procedure reported by Knapp. […] A drug-free control was included in each experiment. The bacterial cultures were standardized to obtain an initial inoculum that ranged from 5×10^5 to 5×10^6 CFU/ml. The cultures were incubated at 37°C in a shaking bath. At 0, 2, 4, 8 and 24-hour intervals, viable counts were performed by spotting (in triplicate) 10 μl aliquots of suitable dilutions of the cultures onto Mueller-Hinton agar (MHA, Oxoid, Basingstoke, UK) plates. After incubation at 37°C for 24 hours, the bactericidal activity, namely, the ability to reduce the initial inoculum by 3 log10 CFU/ml, was assessed for each tested concentration over time."}, "S. aureus BAA-1720": {"system": "S. aureus BAA-1720", "assay": "Minimal bactericidal concentration", "format": "cell-based, Staphylococcus aureus", "settings": "Staphylococcus aureus, BAA1720, ≥99.9% reduction of inoculum", "description": "(§4) Minimal bactericidal concentrations (MBCs) were determined according to the procedure described by Knapp. Viable counts were performed after plates were incubated at 37°C for 24 hours. The MBC was defined as the lowest concentration that reduced the viability of the initial bacterial inoculum by ≥99.9%."}, "S. aureus ATCC 29213 [6]": {"system": "S. aureus ATCC 29213", "assay": "Minimal bactericidal concentration", "format": "cell-based, Staphylococcus aureus", "settings": "Staphylococcus aureus, ATCC29213, ≥99.9% reduction of inoculum", "description": "as §4"}, "E. coli ATCC 25922": {"system": "E. coli ATCC 25922", "assay": "Minimal bactericidal concentration", "format": "cell-based, Escherichia coli", "settings": "Escherichia coli, ATCC25922, ≥99.9% reduction of inoculum", "description": "as §4"}, "[7]": {"system": "C. difficile clinical isolates (n = 21)", "assay": "MIC, multidrug-resistant clinical isolates", "format": "cell-based, Clostridium difficile", "settings": "Clostridioides difficile, C. difficile clinical isolates (n = 21); for MIC50: read-out: MIC50; for MIC90: read-out: MIC90; for MIC: read-out: MIC range", "description": "as §1, §2, §3"}}, "note": "Counter-ions that a name gives are not always drawn."}
{"smiles": "CC1(C)S[C@@H]2[C@H](NC(=O)[C@H](N)c3ccccc3)C(=O)N2[C@H]1C(=O)O", "note": "[ampicillin, reference compound]", "values": [{"measurement": "MIC50", "setting": "[1]; Escherichia coli", "result": "> 64", "unit": "µg/mL"}, {"measurement": "MIC90", "setting": "[1]; Escherichia coli", "result": "> 64", "unit": "µg/mL"}, {"measurement": "MIC50", "setting": "[2]", "result": "> 64", "unit": "µg/mL"}, {"measurement": "MIC90", "setting": "[2]", "result": "> 64", "unit": "µg/mL"}, {"measurement": "MIC", "setting": "[2]", "result": "> 64", "unit": "µg/mL"}, {"measurement": "MIC50", "setting": "[3]", "result": 2, "unit": "µg/mL"}, {"measurement": "MIC90", "setting": "[3]", "result": 2, "unit": "µg/mL"}, {"measurement": "MIC", "setting": "[3]", "result": "1 to 4", "unit": "µg/mL"}]}
{"smiles": "CO/N=C(\\C(=O)N[C@@H]1C(=O)N2C(C(=O)O)=C(CSc3nc(=O)c(=O)[nH]n3C)CS[C@H]12)c1csc(N)n1", "note": "[ceftriaxone, ceftriaxone sodium, reference compound]", "values": [{"measurement": "MIC range", "setting": "[1]", "result": "0.03 to 32", "unit": "µg/mL"}, {"measurement": "MIC50", "setting": "[1]; Escherichia coli", "result": 1, "unit": "µg/mL"}, {"measurement": "MIC90", "setting": "[1]; Escherichia coli", "result": 32, "unit": "µg/mL"}, {"measurement": "MIC range", "setting": "[4]", "result": "≤0.002 to 0.12", "unit": "µg/mL"}, {"measurement": "MIC50", "setting": "[4]; Neisseria gonorrhoeae", "result": 0.012, "unit": "µg/mL"}, {"measurement": "MIC90", "setting": "[4]; Neisseria gonorrhoeae", "result": 0.094, "unit": "µg/mL"}]}
{"smiles": "O=C(O)c1cn(C2CC2)c2cc(N3CCNCC3)c(F)cc2c1=O", "note": "[ciprofloxacin, Ciprofloxacin hydrochloride, reference compound]", "values": [{"measurement": "PAE", "setting": "S. aureus ATCC 29213 [5]; 1-hour exposure at 1× and 4× MIC", "result": 25, "unit": "min"}, {"measurement": "PAE", "setting": "S. aureus ATCC 29213 [5]; 1-hour exposure at 16× MIC", "result": 35, "unit": "min"}, {"measurement": "Bactericidal activity in time-kill (reduction of 3 log10 CFU/ml)", "setting": "S. aureus ATCC BAA-1720", "result": "no bactericidal effect"}, {"measurement": "MBC", "setting": "S. aureus BAA-1720", "result": 256, "unit": "µg/mL"}, {"measurement": "MBC", "setting": "S. aureus ATCC 29213 [6]", "result": 1, "unit": "µg/mL"}, {"measurement": "MBC", "setting": "E. coli ATCC 25922", "result": 0.016, "unit": "µg/mL"}]}
{"smiles": "CCC[C@@H]1C[C@@H](C(=O)N[C@@H]([C@H]2O[C@H](SC)[C@H](O)[C@@H](O)[C@H]2O)[C@H](C)Cl)N(C)C1", "note": "[clindamycin, clindamycin hydrochloride, reference compound]", "values": [{"measurement": "MIC50", "setting": "[7]", "result": 8, "unit": "µg/mL"}, {"measurement": "MIC90", "setting": "[7]", "result": 32, "unit": "µg/mL"}, {"measurement": "MIC", "setting": "[7]", "result": "4 to 32", "unit": "µg/mL"}]}
{"smiles": "CCCCCCCCCC(=O)N[C@@H](Cc1c[nH]c2ccccc12)C(=O)N[C@H](CC(N)=O)C(=O)N[C@@H](CC(=O)O)C(=O)N[C@@H]1C(=O)NCC(=O)N[C@@H](CCCN)C(=O)N[C@@H](CC(=O)O)C(=O)N[C@H](C)C(=O)N[C@@H](CC(=O)O)C(=O)NCC(=O)N[C@H](CO)C(=O)N[C@@H]([C@H](C)CC(=O)O)C(=O)N[C@@H](CC(=O)c2ccccc2N)C(=O)O[C@@H]1C", "note": "[daptomycin, reference compound]", "values": [{"measurement": "MIC50", "setting": "[2]", "result": 4, "unit": "µg/mL"}, {"measurement": "MIC90", "setting": "[2]", "result": 4, "unit": "µg/mL"}, {"measurement": "MIC", "setting": "[2]", "result": "2 to 4", "unit": "µg/mL"}, {"measurement": "MIC50", "setting": "[3]", "result": 1, "unit": "µg/mL"}, {"measurement": "MIC90", "setting": "[3]", "result": 1, "unit": "µg/mL"}, {"measurement": "MIC", "setting": "[3]", "result": "0.5 to 2", "unit": "µg/mL"}]}
{"smiles": "CCc1c(Cl)c(O)c(Cl)c(O)c1C(=O)O[C@H]1[C@H](O)[C@H](OC)[C@H](OC/C2=C\\C=C\\C[C@H](O)/C(C)=C/[C@H](CC)[C@@H](O[C@@H]3OC(C)(C)[C@@H](OC(=O)C(C)C)[C@H](O)[C@@H]3O)/C(C)=C/C(C)=C/C[C@@H]([C@@H](C)O)OC2=O)O[C@@H]1C", "note": "[fidaxomicin, reference compound]", "values": [{"measurement": "MIC", "setting": "[7]", "result": "0.03 to 1", "unit": "µg/mL"}]}
{"smiles": "CNC(C)C1CCC(N)C(OC2C(N)CC(N)C(OC3OCC(C)(O)C(NC)C3O)C2O)O1", "note": "(centres unmarked) [gentamicin, gentamicin sulfate]", "values": [{"measurement": "MIC50", "setting": "[1]; Escherichia coli", "result": 2, "unit": "µg/mL"}, {"measurement": "MIC90", "setting": "[1]; Escherichia coli", "result": 32, "unit": "µg/mL"}]}
{"smiles": "C[C@@H](O)[C@H]1C(=O)N2C(C(=O)O)=C(SCCN=CN)C[C@H]12", "note": "[imipenem, imipenem monohydrate, reference compound]", "values": [{"measurement": "MIC", "setting": "[1]; Escherichia coli", "result": "0.06 to 16", "unit": "µg/mL"}, {"measurement": "MIC50", "setting": "[1]; Escherichia coli", "result": 0.12, "unit": "µg/mL"}, {"measurement": "MIC90", "setting": "[1]; Escherichia coli", "result": 4, "unit": "µg/mL"}, {"measurement": "MIC50", "setting": "[7]", "result": 8, "unit": "µg/mL"}, {"measurement": "MIC90", "setting": "[7]", "result": 16, "unit": "µg/mL"}, {"measurement": "MIC", "setting": "[7]", "result": "2 to 16", "unit": "µg/mL"}]}
